Data taken from ChEMBL document CHEMBL5370584, “Reprogramming Energy Metabolism with Synthesized PDK Inhibitors Based on Dichloroacetate Derivatives and Targeted Delivery Systems for Enhanced Cancer Therapy” (J Med Chem, 2023).
The source made the active and inactive calls. No cut-off for these calls is given here.

Experiments:
4T1 [1] = experiment: Induction of apoptosis in mouse 4T1 cells assessed as increase in proportion of apoptotic cells incubated for 24 hrs by annexin V-FITC/PI staining based flow cytometry analysis; type: functional, cell-based; conditions: dose 2-3 µM
4T1 [2] = experiment: Downregulation of HIF-1alpha expression in mouse 4T1 cells at 4 uM incubated for 24 hrs; type: functional, cell-based
NB-4 = experiment: Antiproliferative activity against human NB4 cells assessed as inhibition of cell growth incubated for 24 hrs by MTT assay; type: functional, cell-based; conditions: NB-4, 24 h
[3] = Antiproliferative activity against African green monkey COS7 cells assessed as inhibition of cell growth incubated for 24 hrs by MTT assay; type: toxicity, cell-based, Chlorocebus aethiops, COS-7; conditions: African green monkey (Chlorocebus aethiops), COS-7 cells
4T1 [4] = experiment: Induction of apoptosis in mouse 4T1 cells assessed as activation of caspase 3 at 2 uM incubated for 12 to 18 hrs; type: functional, cell-based; conditions: time 12-18 hrs
HeLa = experiment: Antiproliferative activity against human HeLa cells assessed as inhibition of cell growth incubated for 24 hrs by MTT assay; type: functional, cell-based
4T1 [5] = experiment: Induction of apoptosis in mouse 4T1 cells assessed as increase in GSH content at 1 to 2 uM measured after 12 to 24 hrs; type: functional, cell-based; conditions: dose 1-2 µM, time 12-24 hrs
[6] = Antiproliferative activity against rat PBMC cells assessed as inhibition of cell growth at 5 uM incubated for 24 hrs by MTT assay; type: toxicity, cell-based
4T1 [7] = experiment: Recovery in mitochondrial function in mouse 4T1 cells assessed as increase in OCR/ECAR ratio; type: functional, cell-based; conditions: dose 2-6 µM
4T1 [8] = experiment: Inhibition of glycolysis in mouse 4T1 cell lysates assessed as reduction in LDH activity at 1 to 2 uM incubated for 12 hrs; type: functional, cell-based; conditions: dose 1-2 µM
4T1 [9] = experiment: Induction of mitochondrial respiration in mouse 4T1 cells assessed as upregulation of intracellular ATP level at 2 uM incubated for 12 to 24 hrs […]; type: functional, cell-based; conditions: time 12-24 hrs
4T1 [10] = experiment: Inhibition of glycolysis in mouse 4T1 cell lysates assessed as reduction in lactate production at 1 to 4 uM measured after 6 to 12 hrs; type: functional, cell-based; conditions: dose 1-4 µM, time 6-12 hrs
4T1 [11] = experiment: Induction of mitochondrial respiration in mouse 4T1 cells assessed as increase in oxygen consumption rate at 2 to 6 uM incubated for 6 hrs by seahorse XF96 flux analyzer; type: functional, cell-based; conditions: dose 2-6 µM
[12] = target: [Pyruvate dehydrogenase (acetyl-transferring)] kinase isozyme 1, mitochondrial (Homo sapiens, UniProt Q15118); experiment: Inhibition of PDK1 (unknown origin) incubated for 30 mins in presence of ATP by kinase glo luminescent kinase assay
Sequence of [Pyruvate dehydrogenase (acetyl-transferring)] kinase isozyme 1, mitochondrial (Q15118 whole entry): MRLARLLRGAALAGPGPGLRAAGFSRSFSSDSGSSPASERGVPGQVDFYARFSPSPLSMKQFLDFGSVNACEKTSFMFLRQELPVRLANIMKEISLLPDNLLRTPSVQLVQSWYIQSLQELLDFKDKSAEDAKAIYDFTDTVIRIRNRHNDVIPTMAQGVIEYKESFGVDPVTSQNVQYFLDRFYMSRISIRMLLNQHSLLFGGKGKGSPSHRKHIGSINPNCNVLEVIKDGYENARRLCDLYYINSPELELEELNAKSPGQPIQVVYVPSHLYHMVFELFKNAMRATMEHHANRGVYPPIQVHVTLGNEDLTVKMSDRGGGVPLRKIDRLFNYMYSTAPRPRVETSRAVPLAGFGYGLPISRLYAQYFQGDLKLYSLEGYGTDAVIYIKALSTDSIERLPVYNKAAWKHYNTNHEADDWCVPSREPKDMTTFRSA

[13] = Toxicity in BALB/c mouse assessed as effect on body weight at 0.15 to 1.5 mg/kg measured upto 16 days; type: organism-based; conditions: in vivo, 384 h, dose 0.15-1.5 mg/kg, time < 16 day
4T1 [14] = experiment: Induction of ROS production in mouse 4T1 cells by confocal scanning microscopy based analysis; type: functional, cell-based
[15] = Toxicity in BALB/c mouse assessed as effect on heart at 0.15 to 1.5 mg/kg measured upto 16 days; type: organism-based; conditions: in vivo, 384 h, dose 0.15-1.5 mg/kg, time < 16 day
4T1 [16] = experiment: Antiproliferative activity against PDK knockdown mouse 4T1 cells assessed as reduction in apoptotic percentage at 2 uM incubated for 24 hrs by flow cytometry analysis (reference value: 61.6%); type: functional; set-up: scale not given: the % may be the effect or the level left
4T1 [17] = experiment: Induction of apoptosis in mouse 4T1 cells assessed as increase in Bax expression at 4 uM incubated for 24 hrs; type: functional, cell-based
4T1 [18] = experiment: Inhibition of PDK1 expression in mouse 4T1 cells at 4 uM incubated for 24 hrs by Western blot analysis; type: functional, cell-based
MOLM-13 = experiment: Antiproliferative activity against human MOLM-13 cells assessed as inhibition of cell growth incubated for 24 hrs by MTT assay; type: functional, cell-based; conditions: MOLM-13, 24 h
[19] = Toxicity in BALB/c mouse assessed as effect on kidney at 0.15 to 1.5 mg/kg measured upto 16 days; type: organism-based; conditions: in vivo, 384 h, dose 0.15-1.5 mg/kg, time < 16 day
[20] = Toxicity in BALB/c mouse assessed as effect on lung at 0.15 to 1.5 mg/kg measured upto 16 days; type: organism-based; conditions: in vivo, 384 h, dose 0.15-1.5 mg/kg, time < 16 day
4T1 [21] = experiment: Antitumor activity against mouse 4T1 cells xenografted in BALB/c mouse model assessed as reduction in inflammatory index in routine blood at 0.15 to 1.5 mg/kg; type: functional, organism-based; conditions: dose 0.15-1.5 mg/kg
4T1 [22] = experiment: Antiproliferative activity against mouse 4T1 cells assessed as inhibition of cell growth incubated for 24 hrs by MTT assay; type: functional, cell-based; conditions: 4T1, 24 h
4T1 [23] = experiment: Induction of apoptosis in mouse 4T1 cells assessed as activation of caspase 9 at 2 uM incubated for 12 to 18 hrs; type: functional, cell-based; conditions: time 12-18 hrs
4T1 [24] = experiment: Induction of mitochondrial membrane potential depolarization in mouse 4T1 cells at high dose measured after 12 hrs by JC-1 staining based analysis; type: functional, cell-based
4T1 [25] = experiment: Inhibition of glycolysis in mouse 4T1 cell lysates assessed as reduction in LDHA expression at 4 uM incubated for 24 hrs; type: functional, cell-based
[26] = target: [Pyruvate dehydrogenase (acetyl-transferring)] kinase isozyme 3, mitochondrial (Mus musculus) (UniProt Q922H2); experiment: Inhibition of PDK3 transcription in mouse 4T1 cells at 4 uM incubated for 24 hrs by qPCR analysis; type: cell-based
Sequence of [Pyruvate dehydrogenase (acetyl-transferring)] kinase isozyme 3, mitochondrial (Mus musculus) (Q922H2 whole entry): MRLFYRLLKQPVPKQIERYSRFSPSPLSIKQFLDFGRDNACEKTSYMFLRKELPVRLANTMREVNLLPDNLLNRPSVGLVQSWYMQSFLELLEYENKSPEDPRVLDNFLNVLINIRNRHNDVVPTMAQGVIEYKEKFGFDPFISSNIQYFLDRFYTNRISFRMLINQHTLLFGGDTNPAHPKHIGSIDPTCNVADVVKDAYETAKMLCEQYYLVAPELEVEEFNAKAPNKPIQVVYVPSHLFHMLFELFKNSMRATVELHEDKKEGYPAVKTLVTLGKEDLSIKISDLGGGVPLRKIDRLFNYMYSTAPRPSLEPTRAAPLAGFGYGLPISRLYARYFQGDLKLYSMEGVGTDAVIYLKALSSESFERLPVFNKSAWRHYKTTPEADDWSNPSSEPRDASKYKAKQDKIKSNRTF

4T1 [27] = experiment: Inhibition of glycolysis in mouse 4T1 cell lysates assessed as reduction in extracellular acidification rate at 2 to 6 uM measured after 6 hrs; type: functional, cell-based; conditions: dose 2-6 µM
4T1 [28] = experiment: Downregulation of c-myc expression in mouse 4T1 cells at 4 uM incubated for 24 hrs; type: functional, cell-based
[29] = Toxicity in BALB/c mouse assessed as effect on spleen at 0.15 to 1.5 mg/kg measured upto 16 days; type: organism-based; conditions: in vivo, 384 h, dose 0.15-1.5 mg/kg, time < 16 day
4T1 [30] = experiment: Induction of apoptosis in mouse 4T1 cells assessed as reduction in Bcl-2 expression at 4 uM incubated for 24 hrs; type: functional, cell-based
[31] = Toxicity in BALB/c mouse assessed as effect on ALP level at 0.15 to 1.5 mg/kg measured upto 16 days; type: organism-based; conditions: in vivo, 384 h, dose 0.15-1.5 mg/kg, time < 16 day
[32] = Toxicity in BALB/c mouse assessed as effect on liver at 0.15 to 1.5 mg/kg measured upto 16 days; type: organism-based; conditions: in vivo, 384 h, dose 0.15-1.5 mg/kg, time < 16 day
[33] = Toxicity in BALB/c mouse assessed as effect on AST level at 0.15 to 1.5 mg/kg measured upto 16 days; type: organism-based; conditions: in vivo, 384 h, dose 0.15-1.5 mg/kg, time < 16 day
4T1 [34] = experiment: Induction of mitochondrial respiration in mouse 4T1 cells assessed as increase in basal respiration at 2 to 6 uM incubated for 6 hrs by seahorse XF96 flux analyzer; type: functional, cell-based; conditions: dose 2-6 µM
MCF7 = experiment: Antiproliferative activity against human MCF7 cells assessed as inhibition of cell growth incubated for 24 hrs by MTT assay; type: functional, cell-based; conditions: MCF7, 24 h
4T1 [35] = experiment: Induction of mitochondrial membrane potential depolarization in mouse 4T1 cells at low dose measured after 12 hrs by JC-1 staining based analysis; type: functional, cell-based
[36] = Toxicity in BALB/c mouse assessed as effect on UREA level at 0.15 to 1.5 mg/kg measured upto 16 days; type: organism-based; conditions: in vivo, 384 h, dose 0.15-1.5 mg/kg, time < 16 day
COS-7 = experiment: Effect on PDHA1 expression in African monkey COS7 cells at 12 uM measured after 24 hrs; type: functional, cell-based; conditions: Chlorocebus aethiops
[37] = target: [Pyruvate dehydrogenase (acetyl-transferring)] kinase isozyme 4, mitochondrial (Mus musculus) (UniProt O70571); experiment: Inhibition of PDK4 transcription in mouse 4T1 cells at 4 uM incubated for 24 hrs by qPCR analysis; type: cell-based
Sequence of [Pyruvate dehydrogenase (acetyl-transferring)] kinase isozyme 4, mitochondrial (Mus musculus) (O70571 whole entry): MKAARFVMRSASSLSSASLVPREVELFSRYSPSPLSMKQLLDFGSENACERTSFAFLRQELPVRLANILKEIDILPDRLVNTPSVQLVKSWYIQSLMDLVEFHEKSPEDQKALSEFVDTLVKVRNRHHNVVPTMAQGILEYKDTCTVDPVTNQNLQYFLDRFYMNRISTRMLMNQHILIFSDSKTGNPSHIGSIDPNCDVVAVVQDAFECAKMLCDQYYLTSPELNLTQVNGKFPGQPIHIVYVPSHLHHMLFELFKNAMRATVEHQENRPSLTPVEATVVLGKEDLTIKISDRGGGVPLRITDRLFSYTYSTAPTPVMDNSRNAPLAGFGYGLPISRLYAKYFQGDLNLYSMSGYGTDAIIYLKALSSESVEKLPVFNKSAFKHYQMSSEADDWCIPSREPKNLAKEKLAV

O=C(CCCCCNC(=O)C(Cl)Cl)Nc1ccc([As]2SCCCS2)cc1
Activity (4T1 [1]): Dose-Dependent Effect
Activity (4T1 [2]): Active
IC50 (NB-4): 1.72 µM
IC50 at 24 h [3]: 11.2 µM
Activity (4T1 [4]): Active
IC50 (HeLa): 2.5 µM
Activity (4T1 [5]): Active
Activity [6]: Non-Toxic
Activity (4T1 [7]): Dose-Dependent Effect
inhibition (4T1 [8]): Active
Activity (4T1 [9]): Active
inhibition (4T1 [10]): Active
Activity (4T1 [11]): Active
EC50 [12]: 0.068 µM
Activity [13]: Non-Toxic
Activity (4T1 [14]): Active
Activity [15]: Non-Toxic
Activity (4T1 [16]): 16.1%
Activity (4T1 [17]): Active
inhibition (4T1 [18]): Active
IC50 (MOLM-13): 1.35 µM
Activity [19]: Non-Toxic
Activity [20]: Non-Toxic
Activity (4T1 [21]): Active
IC50 (4T1 [22]): 1.92 µM
Activity (4T1 [23]): Active
Activity (4T1 [24]): Active
inhibition (4T1 [25]): Active
inhibition [26]: Active
inhibition (4T1 [27]): Active
Activity (4T1 [28]): Active
Activity [29]: Non-Toxic
Activity (4T1 [30]): Active
Activity [31]: Non-Toxic
Activity [32]: Non-Toxic
Activity [33]: Non-Toxic
Activity (4T1 [34]): Active
IC50 (MCF7): 2.5 µM
Activity (4T1 [35]): inactive
Activity [36]: Non-Toxic
Activity (COS-7): inactive
inhibition [37]: Active
